Measured values reported in ChEMBL document CHEMBL1201862, “PubChem BioAssay data set” (2004).
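Where inhibition never reached the appropriate level, the endpoint shown equals the highest concentration tested. Otherwise, values were interpolated linearly from a five-concentration, 48-hour dose response in 96-well plates. GI50 = concentration required for 50% inhibition of growth.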 Active and inactive are the calls of the source. Cut-off read from the data, not from the text of the source: active = GI50 up to about 1.1 µM and inactive = higher.

Legend:
Assay in all cases: DTP human tumour cell line panel, 48 h
786-0 = test system: 786-0
A549 = test system: A549
ACHN = test system: ACHN
CAKI-1 = test system: CAKI-1
CCRF-CEM = test system: CCRF-CEM
COLO 205 = test system: COLO 205
DLD-1 = test system: DLD-1
DMS-114 = test system: DMS-114
DMS-273 = test system: DMS-273
EKVX = test system: EKVX
HCC 2998 = test system: HCC 2998
HCT-116 = test system: HCT-116
HCT-15 = test system: HCT-15
HOP-18 = test system: HOP-18
HOP-62 = test system: HOP-62
HOP-92 = test system: HOP-92
HT-29 = test system: HT-29
K562 = test system: K562
KM-20L2 = test system: KM-20L2
KM12 = test system: KM12
LOX IMVI = test system: LOX IMVI
LXFL 529 = test system: LXFL 529
M14 = test system: M14
MOLT-4 = test system: MOLT-4
Malme-3M = test system: Malme-3M
NCI-H226 = test system: NCI-H226
NCI-H23 = test system: NCI-H23
NCI-H460 = test system: NCI-H460
NCI-H522 = test system: NCI-H522
OVCAR-3 = test system: OVCAR-3
OVCAR-4 = test system: OVCAR-4
OVCAR-5 = test system: OVCAR-5
OVCAR-8 = test system: OVCAR-8
RPMI-8226 = test system: RPMI-8226
RXF 393 = test system: RXF 393
SF-268 = test system: SF-268
SF-295 = test system: SF-295
SF-539 = test system: SF-539
SK-MEL-28 = test system: SK-MEL-28
SK-MEL-2 = test system: SK-MEL-2
SK-MEL-5 = test system: SK-MEL-5
SK-OV-3 = test system: SK-OV-3
SN12C = test system: SN12C
SNB-19 = test system: SNB-19
SNB-75 = test system: SNB-75
SNB-78 = test system: SNB-78
SR = test system: SR
SW-620 = test system: SW-620
TK-10 = test system: TK-10
U-251 = test system: U-251
UACC-257 = test system: UACC-257
UACC-62 = test system: UACC-62
UO-31 = test system: UO-31
XF498 = test system: XF498
HL-60 = test system: HL-60
IGROV-1 = test system: IGROV-1
M19-MEL = test system: M19-MEL

CC1(C)OC(=O)C(c2cccs2)C(=O)O1
GI50 (786-0): > 100 µM (inactive) | GI50 (A549): > 100 µM (inactive) | GI50 (ACHN): > 100 µM (inactive) | GI50 (CAKI-1): > 100 µM (inactive) | GI50 (CCRF-CEM): > 100 µM (inactive) | GI50 (COLO 205): > 100 µM (inactive) | GI50 (DLD-1): > 100 µM (inactive) | GI50 (DMS-114): > 100 µM (inactive) | GI50 (DMS-273): > 100 µM (inactive) | GI50 (EKVX): > 100 µM (inactive) | GI50 (HCC 2998): > 100 µM (inactive) | GI50 (HCT-116): > 100 µM (inactive) | GI50 (HCT-15): > 100 µM | GI50 (HOP-18): > 100 µM (inactive) | GI50 (HOP-62): > 100 µM (inactive) | GI50 (HOP-92): > 100 µM (inactive) | GI50 (HT-29): > 100 µM (inactive) | GI50 (K562): > 100 µM (inactive) | GI50 (KM-20L2): > 100 µM (inactive) | GI50 (KM12): > 100 µM (inactive) | GI50 (LOX IMVI): > 100 µM (inactive) | GI50 (LXFL 529): > 100 µM (inactive) | GI50 (M14): > 100 µM (inactive) | GI50 (MOLT-4): > 100 µM (inactive) | GI50 (Malme-3M): > 100 µM (inactive) | GI50 (NCI-H226): > 100 µM (inactive) | GI50 (NCI-H23): > 100 µM (inactive) | GI50 (NCI-H460): > 100 µM (inactive) | GI50 (NCI-H522): > 100 µM (inactive) | GI50 (OVCAR-3): > 100 µM (inactive) | GI50 (OVCAR-4): > 100 µM (inactive) | GI50 (OVCAR-5): > 100 µM (inactive) | GI50 (OVCAR-8): > 100 µM (inactive) | GI50 (RPMI-8226): > 100 µM (inactive) | GI50 (RXF 393): > 100 µM (inactive) | GI50 (SF-268): > 100 µM (inactive) | GI50 (SF-295): > 100 µM (inactive) | GI50 (SF-539): > 100 µM (inactive) | GI50 (SK-MEL-28): > 100 µM (inactive) | GI50 (SK-MEL-2): > 100 µM (inactive) | GI50 (SK-MEL-5): > 100 µM (inactive) | GI50 (SK-OV-3): > 100 µM (inactive) | GI50 (SN12C): > 100 µM (inactive) | GI50 (SNB-19): > 100 µM (inactive) | GI50 (SNB-75): > 100 µM (inactive) | GI50 (SNB-78): > 100 µM (inactive) | GI50 (SR): > 100 µM (inactive) | GI50 (SW-620): > 100 µM (inactive) | GI50 (TK-10): > 100 µM (inactive) | GI50 (U-251): > 100 µM (inactive) | GI50 (UACC-257): > 100 µM (inactive) | GI50 (UACC-62): > 100 µM (inactive) | GI50 (UO-31): > 100 µM (inactive) | GI50 (XF498): > 100 µM (inactive)

CO[C@@H]1C=C[C@@]23c4cc5c(cc4CN(C[C@@H]2O)[C@H]3C1)OCO5 [(+)-HAEMANTHAMINE]
GI50 (786-0): 20.1 µM (inactive) | GI50 (A549): 24 µM (inactive) | GI50 (ACHN): 5.13 µM (inactive) | GI50 (CAKI-1): 6.22 µM (inactive) | GI50 (CCRF-CEM): 8.34 µM (inactive) | GI50 (DLD-1): 15.3 µM (inactive) | GI50 (DMS-114): 79.6 µM (inactive) | GI50 (EKVX): 38 µM (inactive) | GI50 (HCC 2998): 15.6 µM (inactive) | GI50 (HCT-15): 17.4 µM | GI50 (HL-60): 14 µM (inactive) | GI50 (HOP-18): 21.8 µM (inactive) | GI50 (HOP-92): 14.3 µM (inactive) | GI50 (HT-29): 10.4 µM (inactive) | GI50 (IGROV-1): 23.1 µM (inactive) | GI50 (K562): 7.67 µM (inactive) | GI50 (KM-20L2): 11.7 µM (inactive) | GI50 (KM12): 13.5 µM (inactive) | GI50 (LOX IMVI): 6.38 µM (inactive) | GI50 (LXFL 529): 13.6 µM (inactive) | GI50 (M14): 5.94 µM (inactive) | GI50 (M19-MEL): 16.6 µM (inactive) | GI50 (MOLT-4): 6.47 µM (inactive) | GI50 (Malme-3M): 14.6 µM (inactive) | GI50 (NCI-H226): 25.4 µM (inactive) | GI50 (NCI-H23): 23.6 µM (inactive) | GI50 (NCI-H460): 15.7 µM (inactive) | GI50 (NCI-H522): 12.1 µM (inactive) | GI50 (OVCAR-3): 46.6 µM (inactive) | GI50 (OVCAR-4): 3.85 µM (inactive) | GI50 (OVCAR-5): 41.9 µM (inactive) | GI50 (OVCAR-8): 27.9 µM (inactive) | GI50 (RPMI-8226): 29.6 µM (inactive) | GI50 (RXF 393): 18.7 µM (inactive) | GI50 (SF-268): 29.7 µM (inactive) | GI50 (SF-295): 19.1 µM (inactive) | GI50 (SF-539): 28.6 µM (inactive) | GI50 (SK-MEL-28): 18.9 µM (inactive) | GI50 (SK-MEL-2): 9.16 µM (inactive) | GI50 (SK-MEL-5): > 10 µM (inactive) | GI50 (SK-OV-3): 19.5 µM (inactive) | GI50 (SN12C): 16.1 µM (inactive) | GI50 (SNB-19): 33.3 µM (inactive) | GI50 (SNB-75): 9.06 µM (inactive) | GI50 (SNB-78): 52.5 µM (inactive) | GI50 (SR): 15 µM (inactive) | GI50 (SW-620): 15.5 µM (inactive) | GI50 (TK-10): 30.8 µM (inactive) | GI50 (U-251): 15 µM (inactive) | GI50 (UACC-257): 22.6 µM (inactive) | GI50 (UACC-62): 12.9 µM (inactive) | GI50 (UO-31): 16.5 µM (inactive) | GI50 (XF498): 16.7 µM (inactive)
